In series [1] the test system is Aspergillus fumigatus (NCPF2010). As to the kind of experiment: Resazurin-microtitre assay of planktonic fungus growth. It is filed as cell-based. As for the experimental part: This assay was conducted using a modified, published method (Monteiro et al., 2012). Spores of aspergillus fumigatus (NCPF2010, Public Health England, Wiltshire) were cultured in Sabouraud dextrose agar for 3 days. A stock spore suspension was prepared from a Sabouraud dextrose agar culture by washing with PBS-tween (10 mL; PBS containing 0.05% Tween-20, 100 U/mL Penicillin and 100 U/mL Streptomycin). The spore count was assessed using a Neubauer haemocytometer and, using PBS adjusted to 10^6 spores/mL. A working suspension of spores (10^4 spores/mL) was prepared in filter sterilised MOPS RPMI-1640 (50 mL; RPMI-1640 containing 2 mM L-glutamine, 2% glucose and 0.165 M MOPS, buffered to pH 7 with NaOH). Resazurin sodium salt (100 µL of 1% solution; Sigma-Aldrich, Dorset, UK) was added to the spore suspension and mixed well. The spore suspension-resazurin mixture (100 µL/well) was added to 384-well plates (Catalogue number 353962, BD Falcon, Oxford, UK).
Simultaneously, test compounds (0.5 µL DMSO solution) were added to 100 µL of the spore-resazurin mixture in quadruplicate to provide a final DMSO solution of 0.5% using an Integra VIAFLO 96 (Intergra, Zizers, Switzerland). For non-spore control wells, MOPS-RPMI-resazurin solution (100 µL) was added instead of the spore-resazurin mixture. The plate was covered with a Breathe Easier membrane (Catalogue No Z763624, Sigma-Aldrich, Dorset, UK), and incubated (35° C., 5% CO2) until fluorescence in the inoculated wells was double that of the control wells (around 24 hr). The fluorescence of each well (545 nm (excitation) / 590 nm (emission), gain 800, focal height 5.5 mm) was determined using a multi-scanner (Clariostar: BMG, Buckinghamshire, UK). The percentage inhibition for each well was calculated and the MIC50, MIC75 and MIC90 values were calculated from the concentration-response curve generated for each test compound.
For orientation: Resazurin is reduced to fluorescent resorufin, in cell work by metabolically active cells.

Series [2] has as its system Aspergillus fumigatus NCPF7100. As to the kind of experiment: Broth microdilution assay (modified EUCAST). It is filed as cell-based. In general terms: Broth dilution looks for growth in wells or tubes with falling amounts of substance.
For series [3], the system named is Aspergillus fumigatus L98H (TR34/L98H). The experiment in a line: Broth microdilution assay (modified EUCAST). It is filed as cell-based. A digest of the protocol:
(§1)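 Spores from 3-day Sabouraud cultures (working suspension 2 × 10^5 spores/mL) were added to an equal volume of RPMI-1640 (2 mM L-glutamine, 0.5% BSA, 2% glucose, 0.165 M MOPS, pH 7) containing compound, in quadruplicate. After 48 hr at 35 °C, OD530 gave percent inhibition. MIC50, MIC75 and MIC90 came from concentration-response curves.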

Series [4] has as its system Aspergillus fumigatus NCPF7099. As to the kind of experiment: Broth microdilution assay (modified EUCAST). It is filed as cell-based. A digest of the protocol: as §1
In series [5] the test system is Aspergillus fumigatus NCPF2010. The experiment in a line: Broth microdilution assay (modified EUCAST). It is filed as cell-based. In a few lines: as §1
Series [6] concerns aspergillus fumigatus (ATCC 13073 [strain: NIH 5233]). As to the kind of experiment: In vivo anti-fungal activity, prophylactic and therapeutic treatment of infected immunocompromised neutropenic mice. Set-up: species or system A/J mice. The settings on record: prophylactic treatment (days 0, 1, 2 and 3); 0.4 mg/mL.
Series [7] concerns aspergillus fumigatus infection of BEAS2B cells. As to the kind of experiment: Aspergillus fumigatus infection of bronchial epithelial cells (GM in supernatant). The settings on record: Aspergillus fumigatus, read-out: MIC50 Infection of BEAS2B cells. It is filed as cell-based. A digest of the protocol: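 BEAS2B cells in 10% FBS RPMI-1640 pre-treated with compound (0.5% DMSO final) for 1 hr at 35 °C, then infected with A. fumigatus conidia (0.5×10^5/ml suspension) for 24 hr at 35 °C. Galactomannan in 1:20-diluted supernatant measured by Platelia GM-EIA; IC50 from percent-inhibition concentration-response curves.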

Series [8] is described as follows: Cell viability: resazurin assay. It is filed as cell-based, human. The settings on record: human, BEAS2B cells; n = 3-5. A digest of the protocol: (§2)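 BEAS2B cells in RPMI-LHC8, exposed to compound for 1 day at 37 °C (0.5% DMSO final), then resazurin added for a further 4 h. Fluorescence (ex 545/em 590 nm) gives % viability loss vs 0.5% DMSO vehicle; CC50 from concentration-response curve.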

For a further series, the system named is BEAS2B cells. As to the kind of experiment: Cell viability: resazurin assay. It is filed as cell-based, human. The following applies: n = 3-5. A digest of the protocol: as §2
For series [9], the system named is Aspergillus flavus ATCC204304. As to the kind of experiment: Fungus panel screening, CLSI broth microdilution. It is filed as cell-based. The protocol: (§3) Fungus panel screening was conducted by Eurofins Panlabs Inc. The MIC and MIC50 values of the test articles were determined following the guidelines of the Clinical and Laboratory Standards Institute, broth microdilution methods for yeast (CLSI M27-A2), (CLSI, 2002) and for filamentous fungi (CLSI M38-A), (CLSI, 2008).

In series [10] the test system is Cryptococcus neoformans ATCC24067. As to the kind of experiment: Fungus panel screening, CLSI broth microdilution. It is filed as cell-based. As for the experimental part: as §3
Series [11] deals with Chaectomium globosum ATCC44699. The experiment in a line: Fungus panel screening, CLSI broth microdilution. It is filed as cell-based. The protocol: as §3
Setting [12] is: Aspergillus fumigatus NCPF2010, resazurin-microtitre assay.
Where [13] appears, read: broth microdilution assay, n = 3.
[14] abbreviates: 50% inhibition by visual inspection (CLSI).
Setting [15] is: 100% inhibition by visual inspection (CLSI), read-out: MIC100.

Values after ≈ are worked out from the molar mass of the structure shown. Read-outs that look alike come from different tables or passages of the source. A value given as a limit tells only on which side of the number the result lay.

Turning to `C[C@@H]1[C@H](O)[C@@H](C)/C=C/C=C/C=C/C=C/C=C/C=C/C=C/[C@H](O[C@@H]2O[C@H](C)[C@@H](O)[C@H](N)[C@@H]2O)C[C@@H]2O[C@](O)(C[C@@H](O)C[C@@H](O)[C@H](O)CC[C@@H](O)C[C@@H](O)CC(=O)O[C@H]1C)C[C@H](O)[C@H]2C(=O)O` [Amphotericin B, reference compound], in series [1] (setting [12]), the “MIC50 Planktonic fungal growth” value was 0.0285 µM (≈ 0.0263 µg/mL) and the “MIC75 Planktonic fungal growth” value was found to be 0.0644 µM (≈ 0.0595 µg/mL). The “MIC75 against Aspergillus fumigatus isolate NCPF7100” value in series [2] (setting [13]) is greater than 1.08 µM. Besides, the “MIC75 against Aspergillus fumigatus isolate L98H” value in series [3] (setting [13]) turned out to be 0.209 µM (≈ 0.193 µg/mL). Further, in [4] (n = 3, read-out: MIC75 against Aspergillus fumigatus isolate NCPF7099), the MIC is 0.365 µM (≈ 0.337 µg/mL). Moreover, the MIC in series [5] (broth microdilution assay, n = 3, read-out: MIC75 against Aspergillus fumigatus isolate NCPF2010) worked out at 0.382 µM (≈ 0.353 µg/mL).

Regarding `Cc1cc(N2CCN(c3ccc(C(=O)Nc4ccc(F)cc4F)cc3)CC2)ccc1OC[C@@H]1CO[C@@](Cn2cncn2)(c2ccc(F)cc2F)C1` [Example 2, 4-(4-(4-(((3R,5R)-5-((1H-1,2,4-Triazol-1-yl)Methyl)-5-(2,4-Difluorophenyl) Tetrahydrofuran-3-yl)Methoxy)-3-Methylphenyl)Piperazin-1-yl)-N-(2,4-Difluorophenyl) Benzamide], the “% Inhibition versus Infected Controls, GM in BALF” value in series [6] was found to be 43%. Besides, in [6], the “% Inhibition versus Infected Controls, GM in serum” value turned out to be 27%. The “% Inhibition versus Infected Controls, Lung Fungal Load” value in series [6] came to 25%. Besides, the MIC50 (as a rule, the lowest concentration that inhibits either 50% of growth or 50% of the strains tested, depending on the study) in [1] (Aspergillus fumigatus, NCPF2010, read-out: MIC50 Planktonic fungal growth) worked out at 0.00074 µM (≈ 0.000519 µg/mL); in series [7] it was 0.00142 µM (≈ 0.000995 µg/mL). Besides, the MIC in series [1] (Aspergillus fumigatus, NCPF2010, read-out: MIC75 Planktonic fungal growth) stood at 0.00306 µM (≈ 0.00214 µg/mL); in series [2] (Aspergillus fumigatus, NCPF7100, read-out: MIC75 against Aspergillus fumigatus isolate NCPF7100), 0.0213 µM (≈ 0.0149 µg/mL); in series [3] (Aspergillus fumigatus, read-out: MIC75 against Aspergillus fumigatus isolate L98H), 0.0816 µM (≈ 0.0572 µg/mL); in series [4] (Aspergillus fumigatus, NCPF7099, n = 3, read-out: MIC75 against Aspergillus fumigatus isolate NCPF7099), 0.0283 µM (≈ 0.0198 µg/mL); in [5] (Aspergillus fumigatus, NCPF2010, read-out: MIC75 against Aspergillus fumigatus isolate NCPF2010), 0.007 µM (≈ 0.00491 µg/mL). Besides, in series [8], the CC50 (as a rule, the concentration at which the toxic effect on the cells reaches its halfway point) at 1 day was greater than 14.3 µM.

Compound `C[C@@H](c1ncncc1F)[C@](O)(Cn1cncn1)c1ccc(F)cc1F` [Voriconazole] yielded a CC50 in the series with BEAS2B cells greater than 28.6 µM. Also, the MIC in series [5] (Aspergillus fumigatus, NCPF2010, broth microdilution assay, n = 3, read-out: MIC75 against Aspergillus fumigatus isolate NCPF2010) is 0.496 µM (≈ 0.173 µg/mL); in series [9] (setting [15]), 2 µg/mL (≈ 5.73 µM); in series [10] (setting [15]) it was 1 µg/mL (≈ 2.86 µM); in [11] (setting [15]), 1 µg/mL (≈ 2.86 µM). The MIC50 in series [9] (setting [14]) came out at 1 µg/mL (≈ 2.86 µM); in series [10] (setting [14]), 0.016 µg/mL (≈ 0.0458 µM); in series [11] (setting [14]), 0.5 µg/mL (≈ 1.43 µM).

These data come from patent publication US20230295133A1, “PROCESS FOR PREPARING A COMPOUND USEFUL TO TREAT MYCOSES” (PULMOCIDE LIMITED, priority 2014, published 2023).
